The species named for this test is Rattus norvegicus. Put plainly: Inhibition of [3H]GABA (gamma amino butyric acid) uptake in vitro in rat brain synaptosomes. The class given is functional.
A word on the IC50: it is the concentration needed to halve the response being measured. Higher therefore signals weaker potency in that assay. `O=[PH](O)C1CCCN(CCC=C(c2ccccc2)c2ccccc2)C1` (stereo not given) showed an IC50 of 53 µM.

In turn, `O=C(O)C1CCCNC1` (stereo not given) [NIPECOTIC ACID] showed an IC50 of 4 µM.

`O=C(O)C1CCCN(CCC=C(c2ccccc2)c2ccccc2)C1` (stereo not given) yielded an IC50 of 0.1 µM.

For `O=[PH](O)C1CCCNC1` (stereo not given), inhibition was half-maximal at 24 µM (IC50).

`CP(=O)(O)C1CCCNC1` (stereo not given) showed an IC50 of over 1000 µM.

(Values after ChEMBL document CHEMBL1132070, “Piperidinyl-3-phosphinic acids as novel uptake inhibitors of the neurotransmitter gamma-aminobutyric acid (GABA)” (Bioorg Med Chem Lett, 1999).)
